Values joined by “and” are separate entries in the source; they are usually repeats but may differ in a detail not shown here. Identical values can stand only once. Like-named read-outs stand apart in the source and are kept apart here.

What is called inhibition is the change of the read-out against control, counted positive when it falls. A word on the Cmax: it is the peak of the concentration-time curve.

One series deals with T1, UGT2B4 (Homo sapiens, UniProt P06133).
T1 construct: purchased BD Gentest Corp. (Woburn, MA, USA); host or cells: baculovirus-infected insect cells
T1 sequence (P06133 24-528): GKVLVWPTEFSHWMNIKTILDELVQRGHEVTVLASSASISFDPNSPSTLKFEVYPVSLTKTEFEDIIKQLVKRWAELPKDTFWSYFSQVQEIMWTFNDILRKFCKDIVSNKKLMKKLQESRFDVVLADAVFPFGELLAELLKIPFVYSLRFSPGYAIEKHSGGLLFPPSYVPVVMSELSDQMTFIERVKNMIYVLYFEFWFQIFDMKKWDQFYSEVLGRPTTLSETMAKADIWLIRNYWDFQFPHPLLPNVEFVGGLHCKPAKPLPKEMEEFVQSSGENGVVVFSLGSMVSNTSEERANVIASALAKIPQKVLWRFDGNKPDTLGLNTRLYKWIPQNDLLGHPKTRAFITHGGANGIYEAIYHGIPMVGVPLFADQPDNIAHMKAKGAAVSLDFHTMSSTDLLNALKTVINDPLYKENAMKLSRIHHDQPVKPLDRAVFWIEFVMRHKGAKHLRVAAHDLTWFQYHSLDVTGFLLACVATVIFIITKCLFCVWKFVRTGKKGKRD
Description: Inhibition of recombinant UGT-catalyzed 4-MU glucuronidation. Format: biochemical. The settings on record: pH 7.4, probe 4-methylumbelliferone (4-MU), 1000 μM, 100 μM compound, 4-MU probe substrate, negative = activation.

The conditions of series [1]: rat, cited from earlier work.
On the set-up of series [2]: method as in PMID 26434292. The settings on record: human, oral 0.9 g mangiferin, cited from earlier work.
Details of series [3]: method as in PMID 27130074. As to conditions: after administration of 200 mg/kg MGF; cited from earlier work.

`O=c1c2cc(O)c(O)cc2oc2cc(O)c([C@@H]3O[C@H](CO)[C@@H](O)[C@H](O)[C@H]3O)c(O)c12` [MGF, 1,3,6,7-tetrahydroxyxanthone-C-2-β-D-glucoside]: the inhibition at 120 min, 100 µM at UGT2B4 is -61.9%. In addition, the “maximum concentration in the plasma” value is 0.19 μg/mL and 0.45 μM in series [1] (oral MGF 70mg/kg); 8.13 ± 1.96 μg/mL and 19.2 ± 4.64 μM in series [1] (oral MGF 120 mg/kg). Further, in series [2] (about 1 h), the “concentration in plasma reached” value is 38.64 ± 6.75 ng/mL and 0.091 ± 0.016 μM. Also, the “time at which the plasma concentration was reached” value in series [2] was “about 1 h”. Also, the Cmax in series [3] is listed as 202.58 ng/mL.
As to `O=c1c2cc(O)c(O)cc2oc2cc(O)cc(O)c12` [NTR, 1,3,6,7-tetrahydroxyxanthone], at UGT2B4, the inhibition at 120 min, 100 µM was -5.5%. Further, in series [3], the AUCNTR/AUCMGF was under 3% and the Cmax is under 3 ng/mL.

The record behind these values is paper PMC6152678, “In Vitro Comparative Study of the Inhibitory Effects of Mangiferin and Its Aglycone Norathyriol towards UDP-Glucuronosyl Transferase (UGT) Isoforms” (Molecules : A Journal of Synthetic Chemistry and Natural …, 2017).
